Assay results taken from US11364248B2 (AMGEN INC., priority 2017, dated 2022).
pIC50: −log10 of the molar value. Like-named read-outs stand apart in the source and are kept apart here.

Tests used:
Mcl-1/Bim interaction = Mcl-1/Bim interaction (Homo sapiens (Human), UniProt Q07820); assay: Cell Free Mcl-1: Bim Affinity Assay (Mcl-1 HTRF); type: binding; details: TR-FRET, recombinant human Mcl-1(171-327), biotin-Bim(51-76); read-out: Mel-1 HTRF IC50
Description: Cell Free Mcl-1: Bim Affinity Assay (Mcl-1 HTRF)
The inhibition of the Mcl-1/Bim interaction was measured using a time-resolved fluorescence resonance energy transfer (TR-FRET) assay. The recombinant human Mcl-1 (C-terminally 6×His tagged Mcl-1 containing residues 171-327) was generated at Amgen Inc (Thousand Oaks, Calif.). A biotinylated peptide derived from human Bim (residues 51-76) was purchased from CPC Scientific (San Jose, Calif.). The TR-FRET assay was conducted in a 384-well white OptiPlate™ (PerkinElmer, Waltham, Mass.) in a total volume of 40 μL. The reaction mixture contained 0.1 nM Mcl-1(171-327), 0.05 nM biotin-Bim(51-76), 0.05 nM LANCER Eu-W1024 Anti-6×His (PerkinElmer), 0.072 nM Streptavidin-Xlent (Cisbio, Bedford, Mass.), and serially diluted test compounds in the binding buffer of 20 mM Hepes, pH 7.5, 150 mM NaCl, 0.016 mM Brij©35, and 1 mM dithiothreitol. Test compounds were pre-incubated with Mcl-1(171-327) and biotin-Bim (51-76) for 60 min before addition of the detection mixture (LANCE Eu-W1024 Anti-6×His and Streptavidin-Xlent). The reaction plates were further incubated overnight and then were read on an Envision® multimode reader (PerkinElmer). Fluorescence signals were measured at 620 nm (40-nm bandwidth) and 665 nm (7.5-nm bandwidth) with a 60 μs delay after excitation at 320 nm (75-nm bandwidth). The signal ratio at 665/620 nm corresponded to the Mcl-1/Bim interaction and was used in all data analyses. The IC50 values of test compounds were determined from duplicate data by analyzing competition curves using a four-parameter sigmoidal model in GraphPad Prism (GraphPad Software, San Diego, Calif.) or in Genedata Screener® (Genedata, Basel, Switzerland).

OPM-2 = assay: Cell Viability Assay (OPM-2 10 FBS); type: cell-based, human; details: OPM-2 cells, CellTiter-Glo, read-out: OPM-2 10% FBS IC50 IP
How it was run: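 Compounds, serially diluted, were left on OPM-2 cells (3000 cells/well, 10% FBS RPMI 1640) for 16 h at 37° C. under 5% CO2.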

Sequence of Mcl-1/Bim interaction (Q07820 171-327): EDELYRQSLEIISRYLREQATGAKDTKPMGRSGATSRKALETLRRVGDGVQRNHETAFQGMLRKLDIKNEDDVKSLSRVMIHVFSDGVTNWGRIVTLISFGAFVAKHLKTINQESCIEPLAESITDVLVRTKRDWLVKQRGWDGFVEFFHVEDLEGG

Row | Structure (SMILES) | pIC50 (Mcl-1/Bim interaction) | pIC50 (OPM-2; 16 h) | pIC50 (OPM-2; Homo sapiens, OPM-2, 16 h)
1 | C[C@@H]1[C@@H](C)CCC[C@@H]([C@H]2OC[C@@H](N3CC(Cl)C3)CO2)[C@@H]2CC[C@H]2CN2C[C@@]3(CCCc4cc(Cl)ccc43)COc3ccc(cc32)C(=O)NS1(=O)=O (single isomer, unassigned) [Example 55] | 9.13 | 6.33 | 
2 | C[C@@H]1[C@@H](C)CCC[C@@H]([C@H]2OC[C@@H](N3CC(Cl)C3)CO2)[C@@H]2CC[C@H]2CN2C[C@@]3(CCCc4cc(Cl)ccc43)COc3ccc(cc32)C(=O)NS1(=O)=O (single isomer, unassigned) [Example 56] | 8.70 | 5.72 | 
3 | C[C@@H]1[C@@H](C)CCC[C@@H]([C@H]2OC[C@@H](N3CC(O)C3)CO2)[C@@H]2CC[C@H]2CN2C[C@@]3(CCCc4cc(Cl)ccc43)COc3ccc(cc32)C(=O)NS1(=O)=O (single isomer, unassigned) [Example 61] | 9.34 | 6.00 | 
4 | C[C@@H]1[C@@H](C)CCC[C@@H]([C@H]2OC[C@@H](N3CC(O)C3)CO2)[C@@H]2CC[C@H]2CN2C[C@@]3(CCCc4cc(Cl)ccc43)COc3ccc(cc32)C(=O)NS1(=O)=O (single isomer, unassigned) [Example 62] | 8.68 | 5.35 | 
5 | C[C@@H]1[C@@H](C)CCC[C@@H]([C@H]2OC[C@@H](N3CCC3(C)C)CO2)[C@@H]2CC[C@H]2CN2C[C@@]3(CCCc4cc(Cl)ccc43)COc3ccc(cc32)C(=O)NS1(=O)=O (single isomer, unassigned) [Example 63] | 8.69 | 5.94 | 
6 | C[C@@H]1[C@@H](C)CCC[C@@H]([C@H]2OC[C@@H](N3CCC3(C)C)CO2)[C@@H]2CC[C@H]2CN2C[C@@]3(CCCc4cc(Cl)ccc43)COc3ccc(cc32)C(=O)NS1(=O)=O (single isomer, unassigned) [Example 64] | 8.31 | 5.13 | 
7 | C[C@@H]1[C@@H](C)CCCC(C2OCC(N)(CO)CO2)[C@@H]2CC[C@H]2CN2C[C@@]3(CCCc4cc(Cl)ccc43)COc3ccc(cc32)C(=O)NS1(=O)=O (single isomer, unassigned) [Example 80] | 9.42 | 6.62 | 
8 | C[C@@H]1[C@@H](C)CCCC(C2OCC(CO)(N(C)C)CO2)[C@@H]2CC[C@H]2CN2C[C@@]3(CCCc4cc(Cl)ccc43)COc3ccc(cc32)C(=O)NS1(=O)=O (single isomer, unassigned) [Example 86] | 9.35 |  | 6.75
9 | C[C@@H]1[C@@H](C)CCC[C@H]([C@H]2O[C@H]3CNC[C@H]3O2)[C@@H]2CC[C@H]2CN2C[C@@]3(CCCc4cc(Cl)ccc43)COc3ccc(cc32)C(=O)NS1(=O)=O (stereo in doubt) [Example 9, (1S,3′R,6′R,7′R,11′S,12′R)-6-chloro-11′,12′-dimethyl-7′-((2r,3aR,6aS)-tetrahydro-3aH-[1,3]dioxolo[4,5-c]pyrrol-2-yl)-3,4-dihydro-2H,15′H-spiro[naphthalene-1,22′-[20]oxa[13]thia[1,14]diazatetracyclo [14.7.2.0~3,6~.0~19,24~]pentacosa[16,18,24]trien]-15′-one 13′,13′-dioxide] | 9.31 | 6.42 | 
10 | C[C@@H]1[C@@H](C)CCC[C@H]([C@H]2O[C@H]3CNC[C@H]3O2)[C@@H]2CC[C@H]2CN2C[C@@]3(CCCc4cc(Cl)ccc43)COc3ccc(cc32)C(=O)NS1(=O)=O (stereo in doubt) [Example 10, (1S,3′R,6′R,7′R,11′S,12′R)-6-chloro-11′,12′-dimethyl-7′-((2r,3aR,6aS)-tetrahydro-3aH-[1,3]dioxolo[4,5-c]pyrrol-2-yl)-3,4-dihydro-2H,15′H-spiro[naphthalene-1,22′-[20]oxa[13]thia[1,14]diazatetracyclo [14.7.2.0~3,6~.0~19,24~]pentacosa[16,18,24]trien]-15′-one 13′,13′-dioxide] | 8.90 | 5.95 | 
